Legend:
Format in all cases: cell-based
[1] = target: T1, ATP-dependent translocase ABCB1 (Homo sapiens, UniProt P08183); assay: Negative allosteric modulator activity at human wildtype P-gp expressed in HEK293FT cells assessed as reversal of P-gp mediated PTX resistance by measuring sensitivity fold change incubated for 5 days by MTS assay; details: 120 h, time 5 day
[2] = target: ATP-dependent translocase ABCB1 (Homo sapiens, UniProt P08183, T1226A); assay: Negative allosteric modulator activity at human P-gp T1226A mutant expressed in HEK293FT cells assessed as fold change in intracellular doxorubicin accumulation using doxorubicin as substrate at 1 uM incubated for 150 mins by microplate reader assay relative to DMSO; details: 2.5 h
[3] = target: ATP-dependent translocase ABCB1 (Homo sapiens, UniProt P08183, I1115M); assay: Negative allosteric modulator activity at human P-gp I1115M mutant expressed in HEK293FT cells assessed as fold change in intracellular doxorubicin accumulation using doxorubicin as substrate at 1 uM incubated for 150 mins by microplate reader assay relative to DMSO; details: 2.5 h
[4] = target: T2, ATP-dependent translocase ABCB1 (Homo sapiens, UniProt P08183, Q1193E); assay: Negative allosteric modulator activity at human P-gp Q1193E mutant expressed in HEK293FT cells assessed as fold change in intracellular doxorubicin accumulation using doxorubicin as substrate at 1 uM incubated for 150 mins by microplate reader assay relative to DMSO; details: 2.5 h
[5] = target: T1, ATP-dependent translocase ABCB1; assay: Negative allosteric modulator activity at human wildtype P-gp expressed in HEK293FT cells assessed as fold change in intracellular doxorubicin accumulation using doxorubicin as substrate at 1 uM incubated for 150 mins by microplate reader assay relative to DMSO; details: 2.5 h
[6] = target: T3, ATP-dependent translocase ABCB1 (Homo sapiens, UniProt P08183, Q1193F); assay: Negative allosteric modulator activity at human P-gp Q1193F mutant expressed in HEK293FT cells assessed as fold change in intracellular doxorubicin accumulation using doxorubicin as substrate at 1 uM incubated for 150 mins by microplate reader assay relative to DMSO; details: 2.5 h
[7] = target: T4, ATP-dependent translocase ABCB1 (Homo sapiens, UniProt P08183, T1226W); assay: Negative allosteric modulator activity at human P-gp T1226W mutant expressed in HEK293FT cells assessed as reversal of P-gp mediated PTX resistance by measuring sensitivity fold change incubated for 5 days by MTS assay; details: 120 h, time 5 day
[8] = target: ATP-dependent translocase ABCB1 (Homo sapiens, UniProt P08183, G1114I); assay: Negative allosteric modulator activity at human P-gp G1114I mutant expressed in HEK293FT cells assessed as increase in intracellular doxorubicin accumulation using doxorubicin as substrate at 1 uM incubated for 150 mins by microplate reader assay (reference value: 94.7 +/- 2.7 %); details: 2.5 h
[9] = target: ATP-dependent translocase ABCB1 (Homo sapiens, UniProt P08183, Q1193C); assay: Negative allosteric modulator activity at human P-gp Q1193C mutant expressed in HEK293FT cells assessed as fold change in intracellular doxorubicin accumulation using doxorubicin as substrate at 1 uM incubated for 150 mins by microplate reader assay relative to DMSO; details: 2.5 h
[10] = target: T2, ATP-dependent translocase ABCB1; assay: Negative allosteric modulator activity at human P-gp Q1193E mutant expressed in HEK293FT cells assessed as increase in intracellular doxorubicin accumulation using doxorubicin as substrate at 1 uM incubated for 150 mins by microplate reader assay (reference value: 62.9 +/- 1.4 %); details: 2.5 h
[11] = target: ATP-dependent translocase ABCB1 (Homo sapiens, UniProt P08183, I1115K); assay: Negative allosteric modulator activity at human P-gp I1115K mutant expressed in HEK293FT cells assessed as increase in intracellular doxorubicin accumulation using doxorubicin as substrate at 1 uM incubated for 150 mins by microplate reader assay (reference value: 97.8 +/- 3.1 %); details: 2.5 h
[12] = target: T5, ATP-dependent translocase ABCB1 (Homo sapiens, UniProt P08183, G1114V); assay: Negative allosteric modulator activity at human P-gp G1114V mutant expressed in HEK293FT cells assessed as fold change in intracellular doxorubicin accumulation using doxorubicin as substrate at 1 uM incubated for 150 mins by microplate reader assay relative to DMSO; details: 2.5 h
[13] = target: T5, ATP-dependent translocase ABCB1; assay: Negative allosteric modulator activity at human P-gp G1114V mutant expressed in HEK293FT cells assessed as increase in intracellular doxorubicin accumulation using doxorubicin as substrate at 1 uM incubated for 150 mins by microplate reader assay (reference value: 102 +/- 2.6 %); details: 2.5 h
[14] = target: ATP-dependent translocase ABCB1 (Homo sapiens, UniProt P08183, I1115F); assay: Negative allosteric modulator activity at human P-gp I1115F mutant expressed in HEK293FT cells assessed as fold change in intracellular doxorubicin accumulation using doxorubicin as substrate at 1 uM incubated for 150 mins by microplate reader assay relative to DMSO; details: 2.5 h
[15] = target: T6, ATP-dependent translocase ABCB1 (Homo sapiens, UniProt P08183, I1115L); assay: Negative allosteric modulator activity at human P-gp I1115L mutant expressed in HEK293FT cells assessed as fold change in intracellular doxorubicin accumulation using doxorubicin as substrate at 1 uM incubated for 150 mins by microplate reader assay relative to DMSO; details: 2.5 h
[16] = target: ATP-dependent translocase ABCB1 (Homo sapiens, UniProt P08183, Q1193T); assay: Negative allosteric modulator activity at human P-gp Q1193T mutant expressed in HEK293FT cells assessed as reversal of P-gp mediated PTX resistance by measuring sensitivity fold change incubated for 5 days by MTS assay; details: 120 h, time 5 day
[17] = target: T6, ATP-dependent translocase ABCB1; assay: Negative allosteric modulator activity at human P-gp I1115L mutant expressed in HEK293FT cells assessed as increase in intracellular doxorubicin accumulation using doxorubicin as substrate at 1 uM incubated for 150 mins by microplate reader assay (reference value: 58.9 +/- 2.2 %); details: 2.5 h
[18] = target: ATP-dependent translocase ABCB1 (Homo sapiens, UniProt P08183, I1115E); assay: Negative allosteric modulator activity at human P-gp I1115E mutant expressed in HEK293FT cells assessed as increase in intracellular doxorubicin accumulation using doxorubicin as substrate at 1 uM incubated for 150 mins by microplate reader assay (reference value: 94.7 +/- 5.1 %); details: 2.5 h
[19] = target: ATP-dependent translocase ABCB1 (Homo sapiens, UniProt P08183, C1227A); assay: Negative allosteric modulator activity at human P-gp C1227A mutant expressed in HEK293FT cells assessed as reversal of P-gp mediated PTX resistance by measuring sensitivity fold change incubated for 5 days by MTS assay; details: 120 h, time 5 day
[20] = target: T3, ATP-dependent translocase ABCB1; assay: Negative allosteric modulator activity at human P-gp Q1193F mutant expressed in HEK293FT cells assessed as increase in intracellular doxorubicin accumulation using doxorubicin as substrate at 1 uM incubated for 150 mins by microplate reader assay (reference value: 64.7 +/- 2.6 %); details: 2.5 h
[21] = target: T4, ATP-dependent translocase ABCB1; assay: Negative allosteric modulator activity at human P-gp T1226W mutant expressed in HEK293FT cells assessed as increase in intracellular doxorubicin accumulation using doxorubicin as substrate at 1 uM incubated for 150 mins by microplate reader assay (reference value: 66.7 +/- 1.5 %); details: 2.5 h

T3 sequence (P08183 whole entry Q1193F): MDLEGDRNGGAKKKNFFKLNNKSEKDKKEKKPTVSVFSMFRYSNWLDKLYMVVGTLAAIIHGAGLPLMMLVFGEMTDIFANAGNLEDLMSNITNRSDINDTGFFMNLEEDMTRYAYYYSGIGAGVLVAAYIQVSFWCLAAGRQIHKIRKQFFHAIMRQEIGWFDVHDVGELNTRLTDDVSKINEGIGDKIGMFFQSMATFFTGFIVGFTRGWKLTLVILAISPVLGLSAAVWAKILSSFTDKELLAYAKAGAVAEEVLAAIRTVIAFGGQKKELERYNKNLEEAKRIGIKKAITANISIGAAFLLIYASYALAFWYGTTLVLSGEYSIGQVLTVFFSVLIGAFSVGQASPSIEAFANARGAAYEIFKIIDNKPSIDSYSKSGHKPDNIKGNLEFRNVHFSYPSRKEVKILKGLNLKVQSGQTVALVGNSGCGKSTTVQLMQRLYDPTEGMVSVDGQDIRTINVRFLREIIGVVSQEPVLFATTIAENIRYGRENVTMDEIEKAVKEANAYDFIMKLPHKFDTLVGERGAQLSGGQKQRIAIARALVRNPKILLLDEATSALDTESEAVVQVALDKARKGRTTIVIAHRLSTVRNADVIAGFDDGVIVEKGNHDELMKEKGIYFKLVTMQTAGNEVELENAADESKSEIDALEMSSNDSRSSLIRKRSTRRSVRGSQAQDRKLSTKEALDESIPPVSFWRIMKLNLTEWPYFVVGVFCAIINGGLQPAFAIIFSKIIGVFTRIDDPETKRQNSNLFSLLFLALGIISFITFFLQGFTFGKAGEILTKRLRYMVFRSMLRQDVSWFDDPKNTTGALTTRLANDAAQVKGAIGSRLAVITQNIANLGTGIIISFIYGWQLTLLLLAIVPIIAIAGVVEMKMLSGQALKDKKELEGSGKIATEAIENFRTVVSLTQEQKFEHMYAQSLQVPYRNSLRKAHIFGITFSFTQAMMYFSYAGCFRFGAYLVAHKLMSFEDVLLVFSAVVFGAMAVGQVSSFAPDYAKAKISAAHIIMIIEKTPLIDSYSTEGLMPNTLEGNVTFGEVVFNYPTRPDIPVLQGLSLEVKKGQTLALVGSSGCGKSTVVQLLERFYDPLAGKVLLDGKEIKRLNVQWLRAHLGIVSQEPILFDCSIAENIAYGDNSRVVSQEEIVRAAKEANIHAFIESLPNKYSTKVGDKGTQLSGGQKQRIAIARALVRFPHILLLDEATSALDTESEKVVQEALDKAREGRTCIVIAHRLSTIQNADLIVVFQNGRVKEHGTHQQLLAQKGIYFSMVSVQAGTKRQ
T1 sequence (P08183 whole entry): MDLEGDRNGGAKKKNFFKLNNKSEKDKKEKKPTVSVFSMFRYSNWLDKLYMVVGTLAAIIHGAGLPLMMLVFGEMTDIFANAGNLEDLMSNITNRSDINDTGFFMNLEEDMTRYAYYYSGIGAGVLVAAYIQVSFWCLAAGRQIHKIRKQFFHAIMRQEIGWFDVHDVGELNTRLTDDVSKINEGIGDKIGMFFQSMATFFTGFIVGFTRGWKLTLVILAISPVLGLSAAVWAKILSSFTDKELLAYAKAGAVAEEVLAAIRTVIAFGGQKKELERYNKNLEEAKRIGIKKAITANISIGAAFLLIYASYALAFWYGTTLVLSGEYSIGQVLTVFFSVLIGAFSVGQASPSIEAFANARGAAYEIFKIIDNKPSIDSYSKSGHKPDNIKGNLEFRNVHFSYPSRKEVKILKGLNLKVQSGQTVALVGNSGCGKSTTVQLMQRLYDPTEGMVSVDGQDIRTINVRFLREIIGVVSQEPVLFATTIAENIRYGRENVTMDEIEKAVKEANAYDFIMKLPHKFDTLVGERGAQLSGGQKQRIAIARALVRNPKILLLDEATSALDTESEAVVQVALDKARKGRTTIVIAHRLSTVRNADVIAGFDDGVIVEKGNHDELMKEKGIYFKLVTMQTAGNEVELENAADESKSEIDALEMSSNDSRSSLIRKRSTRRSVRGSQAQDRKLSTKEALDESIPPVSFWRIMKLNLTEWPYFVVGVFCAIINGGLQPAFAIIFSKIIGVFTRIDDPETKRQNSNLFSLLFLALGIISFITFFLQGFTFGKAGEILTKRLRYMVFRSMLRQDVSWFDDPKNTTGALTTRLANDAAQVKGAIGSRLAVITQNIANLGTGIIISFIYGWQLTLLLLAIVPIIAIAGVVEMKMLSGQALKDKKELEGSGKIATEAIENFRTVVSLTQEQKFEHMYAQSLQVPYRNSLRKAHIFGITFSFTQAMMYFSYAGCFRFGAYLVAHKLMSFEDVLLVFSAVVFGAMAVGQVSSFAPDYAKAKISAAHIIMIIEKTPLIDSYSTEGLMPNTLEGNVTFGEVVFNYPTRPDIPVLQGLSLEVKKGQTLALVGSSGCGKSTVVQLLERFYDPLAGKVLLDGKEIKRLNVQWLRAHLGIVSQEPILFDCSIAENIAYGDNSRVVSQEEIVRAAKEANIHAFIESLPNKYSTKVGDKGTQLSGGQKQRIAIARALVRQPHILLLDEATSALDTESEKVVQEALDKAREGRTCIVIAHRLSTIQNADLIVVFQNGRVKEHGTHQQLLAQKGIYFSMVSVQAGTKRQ
T4 sequence (P08183 whole entry T1226W): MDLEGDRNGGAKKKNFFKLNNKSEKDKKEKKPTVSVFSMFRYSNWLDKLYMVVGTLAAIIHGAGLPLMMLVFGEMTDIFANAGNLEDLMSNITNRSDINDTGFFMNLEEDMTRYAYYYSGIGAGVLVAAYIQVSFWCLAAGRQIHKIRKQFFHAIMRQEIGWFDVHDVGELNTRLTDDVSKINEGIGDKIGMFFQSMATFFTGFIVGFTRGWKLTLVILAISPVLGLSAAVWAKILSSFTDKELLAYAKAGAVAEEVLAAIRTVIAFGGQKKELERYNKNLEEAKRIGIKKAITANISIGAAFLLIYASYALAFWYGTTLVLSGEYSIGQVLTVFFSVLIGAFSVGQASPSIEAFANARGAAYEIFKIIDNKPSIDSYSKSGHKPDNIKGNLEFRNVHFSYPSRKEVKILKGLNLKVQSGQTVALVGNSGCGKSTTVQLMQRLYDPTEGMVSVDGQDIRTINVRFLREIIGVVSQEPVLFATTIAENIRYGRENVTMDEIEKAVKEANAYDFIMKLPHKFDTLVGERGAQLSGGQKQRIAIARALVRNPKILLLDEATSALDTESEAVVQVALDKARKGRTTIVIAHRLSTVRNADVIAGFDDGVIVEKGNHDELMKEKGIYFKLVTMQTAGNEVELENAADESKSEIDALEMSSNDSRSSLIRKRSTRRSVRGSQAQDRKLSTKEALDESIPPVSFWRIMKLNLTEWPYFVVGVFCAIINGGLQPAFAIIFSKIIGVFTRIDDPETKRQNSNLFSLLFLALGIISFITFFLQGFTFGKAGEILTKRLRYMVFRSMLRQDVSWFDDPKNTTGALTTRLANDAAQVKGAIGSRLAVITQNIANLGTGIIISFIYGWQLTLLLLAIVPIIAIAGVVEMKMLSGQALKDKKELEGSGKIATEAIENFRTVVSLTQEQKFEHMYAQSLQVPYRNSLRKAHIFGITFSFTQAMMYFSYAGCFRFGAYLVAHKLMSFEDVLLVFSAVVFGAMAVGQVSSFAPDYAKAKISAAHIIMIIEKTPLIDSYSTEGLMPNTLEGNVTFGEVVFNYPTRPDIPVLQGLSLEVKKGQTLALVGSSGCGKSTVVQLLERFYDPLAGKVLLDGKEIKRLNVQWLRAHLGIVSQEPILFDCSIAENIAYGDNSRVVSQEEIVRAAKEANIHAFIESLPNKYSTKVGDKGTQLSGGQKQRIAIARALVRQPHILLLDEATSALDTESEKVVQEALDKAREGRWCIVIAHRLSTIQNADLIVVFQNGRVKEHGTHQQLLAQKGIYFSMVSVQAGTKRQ
T5 sequence (P08183 whole entry G1114V): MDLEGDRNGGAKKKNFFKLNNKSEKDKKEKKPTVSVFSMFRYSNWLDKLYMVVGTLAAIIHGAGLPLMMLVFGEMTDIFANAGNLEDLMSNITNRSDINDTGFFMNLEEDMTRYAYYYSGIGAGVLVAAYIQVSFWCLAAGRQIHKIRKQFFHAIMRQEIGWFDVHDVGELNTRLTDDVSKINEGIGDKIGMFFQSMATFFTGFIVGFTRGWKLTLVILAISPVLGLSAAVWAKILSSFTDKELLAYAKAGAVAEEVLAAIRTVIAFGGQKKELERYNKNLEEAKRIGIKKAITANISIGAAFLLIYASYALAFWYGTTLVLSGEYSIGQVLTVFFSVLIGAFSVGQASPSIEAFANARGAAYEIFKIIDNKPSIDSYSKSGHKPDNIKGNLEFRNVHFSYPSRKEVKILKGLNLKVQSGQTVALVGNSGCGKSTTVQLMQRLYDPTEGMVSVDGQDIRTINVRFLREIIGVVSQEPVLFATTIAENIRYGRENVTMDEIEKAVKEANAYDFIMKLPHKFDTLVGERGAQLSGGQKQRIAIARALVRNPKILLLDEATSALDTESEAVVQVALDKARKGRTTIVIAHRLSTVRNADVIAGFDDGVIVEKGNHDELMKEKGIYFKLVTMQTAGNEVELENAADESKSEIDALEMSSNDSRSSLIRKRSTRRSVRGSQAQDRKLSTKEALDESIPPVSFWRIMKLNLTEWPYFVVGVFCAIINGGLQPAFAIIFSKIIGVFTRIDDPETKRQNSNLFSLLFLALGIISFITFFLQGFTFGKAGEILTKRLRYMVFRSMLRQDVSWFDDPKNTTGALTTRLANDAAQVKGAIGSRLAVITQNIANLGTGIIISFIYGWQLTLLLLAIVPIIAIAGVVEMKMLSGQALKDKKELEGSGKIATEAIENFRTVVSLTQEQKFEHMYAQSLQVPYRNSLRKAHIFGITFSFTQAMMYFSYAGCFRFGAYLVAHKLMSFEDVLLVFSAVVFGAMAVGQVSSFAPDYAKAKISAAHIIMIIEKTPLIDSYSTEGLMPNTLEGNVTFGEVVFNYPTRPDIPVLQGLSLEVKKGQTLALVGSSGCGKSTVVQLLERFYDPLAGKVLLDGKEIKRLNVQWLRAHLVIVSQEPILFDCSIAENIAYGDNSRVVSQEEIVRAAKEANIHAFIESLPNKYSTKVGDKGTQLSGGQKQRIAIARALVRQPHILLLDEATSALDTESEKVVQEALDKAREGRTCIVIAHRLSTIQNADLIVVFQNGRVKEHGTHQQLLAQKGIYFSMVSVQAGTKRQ

fold change (FC) [1]: 73 | fold change (FC) [2]: 1 | fold change (FC) [3]: 1 | fold change (FC) [4]: 1.1 | fold change (FC) [5]: 1.9 | fold change (FC) [6]: 1.2 | fold change (FC) [7]: 56.8 | Activity [8]: 98.9% | fold change (FC) [9]: 1.3 | Activity [10]: 71.4% | Activity [11]: 100.1% | fold change (FC) [12]: 1 | Activity [13]: 102.5% | fold change (FC) [14]: 1.3 | fold change (FC) [15]: 1.7 | fold change (FC) [16]: 8.5 | Activity [17]: 97.2% | Activity [18]: 97.8% | fold change (FC) [19]: 67.7 | Activity [20]: 74.6% | Activity [21]: 102.4%
SMILES: O=c1cc(-c2ccc(OCCOCCNCc3ccccc3)cc2)oc2ccccc12

Reference: ChEMBL document CHEMBL5338754, “Identification of Binding Sites in the Nucleotide-Binding Domain of P-Glycoprotein for a Potent and Nontoxic Modulator, the Amine-Containing Monomeric Flavonoid FM04” (J Med Chem, 2023)
